# Measured values: patent US12440478B2, “Process for preparing a potent thiazole compound, pharmaceutical formulation and uses thereof” (AHAMMUNE BIOSCIENCES PRIVATE LIMITED, priority 2018, dated 2025)
# How the values were obtained:
# B16-F10 melanocytes = assay: MTT cell viability after tunicamycin-induced ER stress (Test 1); format: cell-based; conditions: pre-treated 6 h, then 300 ng/ml tunicamycin, 72 h; FIG. 1
# Experimental: B16-F10 melanocytes were seeded (5000 cells per well) in 96-well plates for 24 h. Cells were then treated in quadruplicate with indicated concentration of N-[2-[2-(4-chlorophenyl)-4-thiazolyl]ethyl]-butanamide for 6 h. All the compounds dilutions were made in DMSO and the concentration of the vehicle (DMSO) was kept constant (0.1%) in each well. Cells were then treated with 300 ng/ml tunicamycin to cause ER stress and after 72 h of treatment, cells were observed under microscope and images were captured. Then MTT assay was performed to measure the cell viability. Briefly, MTT (0.5 mg/ml) was added to each well and further incubated for 1 h. Culture medium was removed and the reduced MTT (formazen) was dissolved in DMSO (100 μl per well) and measured at 570 nm. Cell growth in vehicle control was calculated as 100% and the effect of the compounds were calculated accordingly.
# B16-F10 cells [1] = assay: Tyrosinase activity with tunicamycin treatment (Test 2); format: cell-based; conditions: pre-treated 6 h, tunicamycin 300 ng/ml, 72 h; % of vehicle control; FIG. 2
# Experimental: (§1) B16-F10 cells were seeded in 24-well plates (20000 cells per well) for 24 h. Cells were then treated with indicated concentrations of N-[2-[2-(4-chlorophenyl)-4-thiazolyl]ethyl]-butanamide. After 6 h of treatment with N-[2-[2-(4-chlorophenyl)-4-thiazolyl]ethyl]-butanamide, tunicamycin (300 ng/ml) was added to the indicated wells. After 72 h of treatments, cells were washed with PBS and lysed in phosphate buffer (pH 6.8) containing 1 mM EDTA and 01% Triton X-100. Lysate was cleared by centrifugation (12000×g) for 10 min and clear lysate (20 μl) was used for tyrosinase assay. The final concentrations of tyrosinase assay mixture were as follows: phosphate buffer (50 mM, pH 6.8), L-DOPA (1 mM), MBTH (6 mM), DMF (2%). Tyrosinase activity was measured by measuring the colored complex formed at 492 nm. Tyrosinase activity was normalized to total cellular proteins measured by Bradford's reagent and represented as % of vehicle control.
# melanocytes = assay: Secreted melanin in cell culture supernatant (Test 3); format: cell-based; conditions: 72 h, with tunicamycin; % of control; FIG. 3
# Experimental: Cells were treated as indicated for 72 h. After incubation, cell culture supernatant was used for the estimation of secreted melanin. Secreted melanin was measured at 405 nm against cell culture medium as blank. Melanin levels were normalized to the total cellular proteins and represented as % of control.
# B16-F10 cells [2] = assay: Tyrosinase activity with cocktail of inflammatory cytokines (Test 4); format: cell-based; conditions: pre-treated 6 h, TNFα, IL1β, IFNγ 10 ng/ml each, 72 h; FIG. 4
# Experimental: In FIG. 4—Cocktail of inflammatory cytokines—Inflammatory cytokines cause inflammation in the system and are implicated for the vitiligo pathology. The “cocktail of inflammatory cytokines” include tumour necrosis factor-alpha (TNFα), interleukin-1 beta (IL-1B) and interferon gamma (IFNγ) at a final concentration of 10 ng/ml each.
# as §1, with “(80000” for “(20000”, “a cocktail of inflammatory cytokines (TNFα, IL1β, IFNγ—10 ng/ml each)” for “tunicamycin (300 ng/ml)”, “to” for “to the”, “led to” for “was measured by measuring”, “conversion of L-DOPA into dopachrome that binds to MBTH and forms a color” for “colored”, “which is read” for “formed”
# [3] = system: NHEM, A375 melanoma, B16-F10 melanoma and NIH-3T3 fibroblasts; assay: Cytotoxicity as LDH release (Test 5); format: cell-based; conditions: 24 hours treatment; FIG. 5
# Experimental: NHEM (normal human […] melanocytes), A375 melanoma, B16-F10 melanoma and NIH-3T3 fibroblasts were seeded in 96 well plates for 24 hours. Cells were then treated with VC (DMSO, 0.1%) or with indicated concentrations of N-[2-[2-(4-chlorophenyl)-4-thiazolyl]ethyl]-butanamide for 24 hours. After incubation period, cytotoxicity was measured as % of total LDH released in the culture medium.
# black guinea pigs = assay: Animal model of vitiligo, topical application to ears (Test 6); format: in vivo, guinea pig; conditions: 1% w/w topical formulation, 4 weeks, versus placebo treated ear; FIG. 6
# Experimental: Topical formulation (1% w/w N-[2-[2-(4-chlorophenyl)-4-thiazolyl]ethyl]-butanamide) was prepared. Similarly, a placebo formulation was also prepared which was exactly similar to the N-[2-[2-(4-chlorophenyl)-4-thiazolyl]ethyl]-butanamide formulation except the active compound. The animal model of vitiligo was developed in black guinea pigs and the placebo and N-[2-[2-(4-chlorophenyl)-4-thiazolyl]ethyl]-butanamide formulations were applied on to the left and right ears respectively.
# obese-diabetic mouse = conditions: multiple obese-diabetic mouse models; cited from earlier work
# [4] = system: cells that expressed a mutant form of rhodopsin; conditions: mutant rhodopsin of autosomal dominant retinitis pigmentosa; protein misfolding and ER stress; cited from earlier work
# [5] = system: ER (endoplasmic reticulum); conditions: cited from earlier work
compound,measurement,setting,value
CCCC(=O)NCCc1csc(-c2ccc(Cl)cc2)n1 [N-[2-[2-(4-chlorophenyl)-4-thiazolyl]ethyl]-butanamide],cell viability (MTT),B16-F10 melanocytes,protects melanocytes from tunicamycin induced cell death in a dose dependent manner
same,tyrosinase activity,B16-F10 cells [1],increases tyrosinase activity and reverses the tunicamycin effect
same,melanin secretion (melanin levels),melanocytes,increases melanin levels and reverses the tunicamycin effect
same,tyrosinase activity under inflammation,B16-F10 cells [2],negates inflammation induced effect in melanocytes
same,cytotoxicity (% of total LDH released),[3],no cytotoxicity
same,ear pigmentation,black guinea pigs,potency to cause repigmentation
same,B-cell function,obese-diabetic mouse,improved
same,glucose tolerance,obese-diabetic mouse,improved
same,insulin sensitivity,obese-diabetic mouse,improved
same,prevention of cell death,[4],effective in preventing the death of cells
same,ER protein folding output,[5],increasing ER protein folding output
same,chaperone expression,[5],chronically inducing chaperone expression
